Laboratory results published in patent US7345091B2, “Carotenoid ether analogs or derivatives for the inhibition and amelioration of disease” (Cardax Pharmaceuticals, Inc., priority 2002, dated 2008).
Counter-ions that a name gives are not always drawn.

Columns and labels:
[1] = Single dose oral plasma pharmacokinetics; format: in vivo, male C57BL/6 mice; settings: free astaxanthin, single 500 mg/kg oral dose
Protocol: Single dose oral pharmacokinetic parameters (including Cmax, Tmax, AUC(0-72) Vd, and clearance) of the disodium disuccinate astaxanthin derivative XVI were determined in male C57BL/6 mice. The animals were administered the derivative orally at a single maximum dose (500 mg/kg) shown in prior studies to likely be efficacious in preventing the injury secondary to CCl4-administration in Sprague-Dawley rats (100 mg/kg body weight in those studies). Samples for HPLC analysis of levels of free astaxanthin in plasma and liver were obtained at the following time points, from at least 3 animals per time point: Time 0 [Immediately Before Dosing of Test Compound], 2, 4, 6, 8, 12, 16, 24, 48, and 72 Hours After Ingestion. Additional samples, with N<3, were taken at other intervals (10, 14, and 36 hours; Tables 2 and 3). Non-esterified, free astaxanthin levels were determined in this study as carotenoid esters are completely cleaved in the mammalian gut to free carotenoid, which moves passively across the enterocyte. 5 Male C57BL/6 mice, approximately 25 g, were housed in cages (three mice/cage) and fed standard mouse chow (Purina Mouse Chow, Ralston Purina, St. Louis) and water ad libitum for at least five days prior to the start of the experiment. […]

[2] = system: male New Zealand white rabbits; test: Experimental infarct size after parenteral administration; format: in vivo, rabbit
From the text: (§1) The influence of parenteral administration of the disodium disuccinate astaxanthin derivative (XVI) on induced infarct size and induced levels of circulating C-reactive protein (CRP) in rabbits was investigated using the methods of Barrett et al. (2002) with slight modifications. The purpose of the current study was to investigate the ability of the disodium disuccinate astaxanthin derivative (XVI) to reduce inflammation as measured by CRP in the setting of experimental myocardial ischemia-reperfusion injury in the rabbit heart. […] Therefore, reduction of circulating CRP levels, together with the reduction(s) in infarct size previously noted with Cardax™ in rodents, would form a powerful anti-inflammatory therapeutic modality in the acute coronary syndrome setting.
In brief, male New Zealand white rabbits (2.25-2.5 kg) were used for the study. The acute phase inflammatory response was induced by subcutaneous injection of four aliquots (0.5 mL each) of 1% croton oil in corn oil beginning on the second day of pre-treatment with Cardax™. […]
At the completion of the reperfusion phase of the protocol, the hearts were removed and cannulated by the aorta on the Langendorff perfusion apparatus. […] Total area at risk was expressed as a percentage of the left ventricle. Infarct size was then expressed as a percentage of area at risk.

C-reactive protein (CRP) = test: Circulating C-reactive protein levels (ELISA) in croton oil-stimulated infarct model; format: in vivo, rabbit; settings: 50 mg/kg IV for 4 days; 1% croton oil; sample at time of reperfusion; controls +23.5%
From the text: as §1
In brief, male New Zealand white rabbits (2.25-2.5 kg) were used for the study. The acute phase inflammatory response was induced by subcutaneous injection of four aliquots (0.5 mL each) of 1% croton oil in corn oil beginning on the second day of pre-treatment with Cardax™. Either Cardax™ (at 50 mg/kg IV by ear vein injection) in water or equal volumes of sterile saline were given once per day for 4 days prior to experimental infarction on day 5. The time course of increases in circulating CRP levels were obtained as described previously (Barret et al. 2002), using an ELISA-based method with anti-rabbit CRP antibodies. […]

Compound: CC1=C(/C=C/C(C)=C/C=C/C(C)=C/C=C/C=C(C)/C=C/C=C(C)/C=C/C2=C(C)C(=O)C(OC(=O)CCC(=O)O)CC2(C)C)C(C)(C)CC(OC(=O)CCC(=O)O)C1=O (racemic) [XVI, Disodium Salt of the Disuccinic Acid Ester of Astaxanthin]
- Oral clearance [1]: 216.822 L/h
- reductions in infarct size ([2]; 50 mg/kg IV once per day for 4 days, 30 min occlusion / 180 min reperfusion): approximately 55.4%
- increase in infarct size reduction in rabbit vs rodents ([2]; same dose and identical pre-treatment schedule): 38%
- mean change in circulating CRP levels from baseline (C-reactive protein (CRP)): −15.7%
